# Measured values as given in patent US11712430B2, “Formulated cannabis oil powder by nanoemulsification, methods of producing and uses thereof” (KARNAK TECHNOLOGIES, LLC, priority 2018, dated 2023).
# Assay: Complete dissolution of agents to obtain the aqueous phase
# Type: physicochemical
# Conditions: as in Example 1, Stage 1
# Procedure: 0.25 gr ammonium glycyrrhizinate, (Sigma, 50531-50G, cas: 53956-04-0), 2 gr Maltodextrin, (Sigma, 419699-500G, cas: 9050-36-6), 2 gr sucrose, (Sigma, 59378-500G, cas: 57-50-1) and 14.3 gr triple distilled water (TDW) were mixed using a magnetic stirrer for 10 min at 35-40° C. until a complete dissolution and acquisition of an aqueous solution.
# It should be noted that among the various selected agents used for the preparation of the various formulations of the invention so far, cyclodextrin was proven to be incompatible in terms of a complete dissolution to obtain the aqueous phase as in Example 1, Stage 1.
substance,measurement,value
cyclodextrin,compatibility in terms of a complete dissolution to obtain the aqueous phase,incompatible
